Source: patent publication EP2520566A1, “New Pharmaceutical Compounds” (Orion Corporation, priority 2011, dated 2012)

These compounds were tested against TRPA1 (Homo sapiens, UniProt O75762) (assay: Determination of TRPA1 activity in vitro (TRPA1 antagonism in vitro), procedure of Wei et al., Anesthesiology 111 (2009) 147-154).
TRPA1, sequence (O75762 whole entry): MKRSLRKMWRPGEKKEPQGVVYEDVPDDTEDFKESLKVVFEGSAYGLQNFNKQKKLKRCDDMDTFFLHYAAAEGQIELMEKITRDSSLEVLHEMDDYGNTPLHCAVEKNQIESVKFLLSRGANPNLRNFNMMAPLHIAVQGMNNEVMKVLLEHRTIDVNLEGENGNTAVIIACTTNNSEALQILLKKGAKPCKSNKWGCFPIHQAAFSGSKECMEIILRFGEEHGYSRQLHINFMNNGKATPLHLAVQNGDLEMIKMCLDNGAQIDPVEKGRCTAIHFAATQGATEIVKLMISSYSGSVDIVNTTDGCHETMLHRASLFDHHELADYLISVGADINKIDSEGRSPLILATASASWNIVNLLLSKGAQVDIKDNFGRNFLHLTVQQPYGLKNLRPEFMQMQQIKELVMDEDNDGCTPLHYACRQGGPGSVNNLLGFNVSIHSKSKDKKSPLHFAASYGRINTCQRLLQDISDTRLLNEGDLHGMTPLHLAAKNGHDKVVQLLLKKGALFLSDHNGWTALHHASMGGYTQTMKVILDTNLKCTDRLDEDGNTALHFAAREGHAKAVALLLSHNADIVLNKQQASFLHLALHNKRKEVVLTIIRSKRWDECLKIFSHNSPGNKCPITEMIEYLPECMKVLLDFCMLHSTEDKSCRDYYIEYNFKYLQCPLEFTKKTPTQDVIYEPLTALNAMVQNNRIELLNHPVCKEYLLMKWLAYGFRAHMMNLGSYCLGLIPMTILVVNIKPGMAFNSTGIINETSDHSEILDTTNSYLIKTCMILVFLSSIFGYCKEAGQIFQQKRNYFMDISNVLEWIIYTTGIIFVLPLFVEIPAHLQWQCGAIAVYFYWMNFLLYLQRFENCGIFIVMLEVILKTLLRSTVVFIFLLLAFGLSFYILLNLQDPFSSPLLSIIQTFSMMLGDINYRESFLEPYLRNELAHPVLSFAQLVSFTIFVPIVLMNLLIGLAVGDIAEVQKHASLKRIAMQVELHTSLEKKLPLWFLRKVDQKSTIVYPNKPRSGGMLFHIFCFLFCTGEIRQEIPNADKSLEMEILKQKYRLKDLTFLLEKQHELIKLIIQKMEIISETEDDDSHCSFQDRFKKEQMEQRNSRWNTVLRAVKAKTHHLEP
Format: cell-based
Excerpt: EXPERIMENT 1: Determination of TRPA1 activity in vitro
The illustrative examples of the present invention were screened for TRPA1 activity according to a procedure described in Wei et al., Anesthesiology 111 (2009) 147-154. Table 1. TRPA1 antagonism in vitro.
Compound `CCCc1cc(CNC(=O)[C@@H]2C[C@@H](F)CN2S(=O)(=O)c2ccccc2)ccc1C#N` [Example 34, (2S,4R)-N-(4-cyano-3-propylbenzyl)-4-fluoro-1-(phenylsulfonyl) pyrrolidine-2-carboxamide] has an IC50 of 12.6 µM. Compound `O=C(NCc1cccc(C2CC2)c1)[C@@H]1CCCN1S(=O)(=O)c1ccc(F)cc1` [Example 23, (S)-N-(3-cyclopropylbenzyl)-1-(4-fluorophenylsulfonyl)pyrrolidine-2-carboxamide] has an IC50 of 7.7 µM. For `CC(C)c1cc(CNC(=O)[C@@H]2CCCN2S(=O)(=O)c2ccccc2)ccc1C#N` [Example 35, (S)-N-(4-cyano-3-isopropylbenzyl)-1-(phenylsulfonyl)pyrrolidine-2-carboxamide], the IC50 was 9.3 µM. `CC(C)Nc1cc(CNC(=O)[C@@H]2C[C@@H](F)CN2S(=O)(=O)c2ccccc2)ccc1Cl` [Example 21, (2S,4R)-N-(4-chloro-3-(isopropylamino)benzyl)-4-fluoro-1-(phenylsulfonyl)pyrrolidine-2-carboxamide] gave an IC50 of 15.6 µM. In the case of `O=C(NCc1cc(OCC(F)(F)F)ccn1)[C@@H]1CCCN1S(=O)(=O)c1ccc(F)cc1` [Example 7, (S)-1-(4-Fluorophenylsulfonyl)-N-((4-(2,2,2-trifluoroethoxy)pyridin-2-yl)methyl)pyrrolidine-2-carboxamide], the IC50 is reported as 17.3 µM. `O=C(NCc1ccnc(OCCC(F)(F)F)c1)[C@@H]1CCCN1S(=O)(=O)c1cc(F)cc(F)c1` [Example 10, (S)-1-(3,5-Difluorophenylsulfonyl)-N-((2-(3,3,3-trifluoropropoxy)pyridin-4-yl)methyl)pyrrolidine-2-carboxamide] gave an IC50 of 16.9 µM. `CC(C)CSc1cc(CNC(=O)[C@@H]2C[C@@H](F)CN2S(=O)(=O)c2ccc(F)cc2)ccn1` [Example 36, (2S,4R)-4-Fluoro-1-(4-fluorophenylsulfonyl)-N-((2-(isobutylthio)pyridin-4-yl)methyl)pyrrolidine-2-carboxamide] showed an IC50 of 17.4 µM. In the case of `O=C(NCc1ccc(Br)cc1F)[C@@H]1C[C@@H](F)CN1S(=O)(=O)c1ccc(F)cc1` [Example 12, (2S,4R)-N-(4-bromo-2-fluorobenzyl)-4-fluoro-1-(4-fluorophenyl-sulfonyl)pyrrolidine-2-carboxamide], the IC50 is reported as 16.3 µM. `O=C(NCc1cc(OCC(F)(F)F)ccn1)[C@@H]1CCCN1S(=O)(=O)c1cc(F)cc(F)c1` [Example 33, (S)-1-(3,5-Difluorophenylsulfonyl)-N-((4-(2,2,2-trifluoroethoxy)pyridine-2-yl)methyl)pyrrolidine-2-carboxamide] showed an IC50 of 18.5 µM. Compound `O=C(NCc1ccc(Br)cc1F)[C@@H]1CCCN1S(=O)(=O)c1ccc(F)cc1` [Example 9, (S)-N-(4-bromo-2-fluorobenzyl)-1-(4-fluorophenylsulfonyl)pyrrolidine-2-carboxamide] has an IC50 of 5.3 µM. For `O=C(NCc1cccc(C(F)(F)F)c1)[C@@H]1CCCN1S(=O)(=O)c1ccccc1` [Example 24, (S)-1-(Phenylsulfonyl)-N-(3-(trifluoromethyl)benzyl)pyrrolidine-2-carboxamide], the IC50 was 17 µM. `O=C(NCc1cc(C(F)(F)F)ccn1)[C@@H]1CCCN1S(=O)(=O)c1ccc(F)cc1` [Example 27, (S)-1-(4-Fluorophenylsulfonyl)-N-((4-(trifluoromethyl)pyridin-2-yl)methyl)pyrrolidine-2-carboxamide] showed an IC50 of 33.8 µM. `CCc1ccc(CNC(=O)[C@@H]2CCCN2S(=O)(=O)c2ccc(F)cc2)cc1` [Example 38, (S)-N-(4-ethylbenzyl)-1-(4-fluorophenylsulfonyl)pyrrolidine-2-carboxamide] gave an IC50 of 16.8 µM. Compound `CCCOc1cccc(CNC(=O)[C@@H]2CCCN2S(=O)(=O)c2ccccc2)c1` [Example 6, (S)-1-(Phenylsulfonyl)-N-(3-propoxybenzyl)pyrrolidine-2-carboxamide] has an IC50 of 5.1 µM. `O=C(NCc1cc(F)cc(OC(F)F)c1)[C@@H]1C[C@@H](F)CN1S(=O)(=O)c1ccc(F)cc1` [Example 18, (2S,4R)-N-(3-(difluoromethoxy)-5-fluorobenzyl)-4-fluoro-1-(4-fluorophenylsulfonyl)pyrrolidine-2-carboxamide] gave an IC50 of 24.1 µM. `O=C(NCc1cccc(C2CC2)c1)[C@@H]1CCCN1S(=O)(=O)c1ccccc1` [Example 22, (S)-N-(3-cyclopropylbenzyl)-1-(phenylsulfonyl)pyrrolidine-2-carboxamide] gave an IC50 of 13.6 µM. For `CSCCOc1cccc(CNC(=O)[C@@H]2CCCN2S(=O)(=O)c2ccc(F)cc2)c1` [Example 1, (S)-1-(4-Fluorophenylsulfonyl)-N-(3-(2-(methylthio)ethoxy)benzyl) pyrrolidine-2-carboxamide], the IC50 was 4 µM. In the case of `CC(C)CSc1ccnc(CNC(=O)[C@@H]2CCCN2S(=O)(=O)c2ccc(F)cc2)c1` [Example 31, (S)-1-(4-Fluorophenylsulfonyl)-N-((4-(isobutylthio)pyridin-2-yl)methyl) pyrrolidine-2-carboxamide], the IC50 is reported as 8.5 µM. `O=C(NCc1cccc(Br)c1)[C@@H]1CCCN1S(=O)(=O)c1ccccc1` [Example 2, (S)-N-(3-bromobenzyl)-1-(phenylsulfonyl)pyrrolidine-2-carboxamide] showed an IC50 of 18.6 µM. With `CC(C)CCOc1cncc(CNC(=O)[C@@H]2CCCN2S(=O)(=O)c2ccc(F)cc2)c1` [Example 28, (S)-1-(4-Fluorophenylsulfonyl)-N-((5-(isopentyloxy)pyridin-3-yl)methyl) pyrrolidine-2-carboxamide] the IC50 was 4.1 µM. `COc1cc(Cl)cc(CNC(=O)[C@@H]2CCCN2S(=O)(=O)c2ccc(F)cc2)c1` [Example 16, (S)-N-(3-chloro-5-methoxybenzyl)-1-(4-fluorophenylsulfonyl) pyrrolidine-2-carboxamide] gave an IC50 of 5.4 µM. With `O=C(NCc1cc(OCC(F)(F)F)ccn1)[C@@H]1CCCN1S(=O)(=O)c1ccc(F)c(F)c1` [Example 32, (S)-1-(3,4-Difluorophenylsulfonyl)-N-((4-(2,2,2-trifluoroethoxy)pyridin-2-yl)methyl)pyrrolidine-2-carboxamide] the IC50 was 12.5 µM. `CC(C)CCOc1cncc(CNC(=O)[C@@H]2C[C@@H](F)CN2S(=O)(=O)c2ccc(F)cc2)c1` [Example 29, (2S,4R)-4-Fluoro-1-(4-fluorophenylsulfonyl)-N-((5-(isopentyloxy)pyridine-3-yl)methyl)pyrrolidine-2-carboxamide] gave an IC50 of 13.6 µM. `CCCNc1cccc(CNC(=O)[C@@H]2CCCN2S(=O)(=O)c2ccc(F)cc2)c1` [Example 39, (S)-1-(4-Fluorophenylsulfonyl)-N-(3-(propylamino)benzyl)pyrrolidine-2-carboxamide] gave an IC50 of 14.1 µM.
